Source: PMC9504985, “Identification of Novel Aryl Carboxamide Derivatives as Death-Associated Protein Kinase 1 (DAPK1) Inhibitors with Anti-Proliferative Activities: Design, Synthesis, In Vitro, and In Silico Biological Studies” (Pharmaceuticals, 2022)

Legend:
[1] = target: T1, Death-associated protein kinase 1 (DAPK1) (Homo sapiens, UniProt P53355); assay: 10-dose kinase assay (Reaction Biology HotSpot); assay type: biochemical
[2] = target: T1, Death-associated protein kinase 1 (DAPK1); assay: single-dose kinase assay, % inhibition at […]; assay type: biochemical; details: read-out: % Inhibition against DAPK1 ^a

T1 sequence (P53355 whole entry): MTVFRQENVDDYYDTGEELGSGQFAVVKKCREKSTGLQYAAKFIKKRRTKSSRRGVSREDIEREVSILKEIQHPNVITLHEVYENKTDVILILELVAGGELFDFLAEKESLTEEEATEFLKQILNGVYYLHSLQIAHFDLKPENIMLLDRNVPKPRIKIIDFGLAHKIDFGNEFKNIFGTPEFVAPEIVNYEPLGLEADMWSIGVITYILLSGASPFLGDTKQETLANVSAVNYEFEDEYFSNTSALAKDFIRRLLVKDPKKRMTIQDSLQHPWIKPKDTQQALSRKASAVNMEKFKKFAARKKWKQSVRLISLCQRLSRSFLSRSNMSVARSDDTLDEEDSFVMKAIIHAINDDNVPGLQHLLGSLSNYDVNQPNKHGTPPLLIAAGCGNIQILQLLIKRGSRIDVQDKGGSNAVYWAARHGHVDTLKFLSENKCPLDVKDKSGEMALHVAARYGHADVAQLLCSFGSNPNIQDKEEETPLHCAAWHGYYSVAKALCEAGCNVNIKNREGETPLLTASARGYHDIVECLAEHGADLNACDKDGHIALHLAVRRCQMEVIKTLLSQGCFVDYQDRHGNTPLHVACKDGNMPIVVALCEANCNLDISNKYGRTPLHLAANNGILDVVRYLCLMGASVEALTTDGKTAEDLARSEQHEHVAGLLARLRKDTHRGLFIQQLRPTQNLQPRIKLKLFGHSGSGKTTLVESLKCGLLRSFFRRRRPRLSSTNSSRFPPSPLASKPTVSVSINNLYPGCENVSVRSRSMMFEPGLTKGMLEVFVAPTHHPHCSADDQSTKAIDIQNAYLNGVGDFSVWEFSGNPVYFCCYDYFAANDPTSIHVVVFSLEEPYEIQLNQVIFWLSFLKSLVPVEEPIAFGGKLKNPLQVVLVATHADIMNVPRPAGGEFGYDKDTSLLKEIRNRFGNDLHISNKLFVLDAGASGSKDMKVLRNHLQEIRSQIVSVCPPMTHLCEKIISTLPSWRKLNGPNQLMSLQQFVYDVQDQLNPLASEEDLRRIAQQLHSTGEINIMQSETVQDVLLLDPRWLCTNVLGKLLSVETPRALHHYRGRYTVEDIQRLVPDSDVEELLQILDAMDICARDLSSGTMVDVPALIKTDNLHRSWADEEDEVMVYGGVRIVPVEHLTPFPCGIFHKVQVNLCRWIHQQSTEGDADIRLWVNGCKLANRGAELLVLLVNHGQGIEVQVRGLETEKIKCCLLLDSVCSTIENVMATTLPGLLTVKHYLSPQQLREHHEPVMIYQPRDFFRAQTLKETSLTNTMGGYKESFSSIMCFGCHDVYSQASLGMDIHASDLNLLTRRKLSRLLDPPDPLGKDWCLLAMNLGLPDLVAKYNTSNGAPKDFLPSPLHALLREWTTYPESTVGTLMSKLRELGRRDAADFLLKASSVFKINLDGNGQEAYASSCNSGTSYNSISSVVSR

`O=C(Nc1ccc(Oc2ccc(F)cc2)c(Cl)c1)c1ccccn1` [4h, N-(3-chloro-4-(4-fluorophenoxy)phenyl) picolinamide] showed an IC50 [1] of 6.81 µM.
`O=C(Nc1ccc(Oc2ccc(F)cc2)c(Cl)c1)c1cccnc1` [4j, N-(3-chloro-4-(4-fluorophenoxy)phenyl) nicotinamide] was tested, and the IC50 [1] was 1.7 µM.
In the case of `O=C(Nc1ccc(Oc2ccc(F)cc2)c(Cl)c1)c1ccncc1` [4k, N-(3-chloro-4-(4-fluorophenoxy)phenyl) isonicotinamide], the IC50 [1] is reported as 7.26 µM.
For `O=C(Nc1ccc(Oc2cccc(Cl)c2)c(Cl)c1)c1ccccn1` [4m, N-(3-chloro-4-(3-chlorophenoxy)phenyl) picolinamide], the inhibition at 10 µM [2] was 61.7%.
`O=C(Nc1ccc(Oc2cccc(Cl)c2)c(Cl)c1)c1cccnn1` [4n, N-(3-chloro-4-(3-chlorophenoxy)phenyl) pyridazine-3-carboxamide] was tested, and the inhibition at 10 µM [2] was 61.5%.
Work on `O=C(Nc1ccc(Oc2cccc(Cl)c2)c(Cl)c1)c1cccnc1` [4p, N-(3-chloro-4-(3-chlorophenoxy)phenyl) nicotinamide] yielded an inhibition at 10 µM [2] of 61.5%.
`O=C(Nc1ccc(Oc2cccc(Cl)c2)c(Cl)c1)c1ccncc1` [4q, N-(3-chloro-4-(3-chlorophenoxy)phenyl) isonicotinamide] showed an IC50 [1] of 1.09 µM.
For `O=C(Nc1ccc(Oc2cccc(Cl)c2)c(Cl)c1)c1ccnnc1` [4r, N-(3-chloro-4-(3-chlorophenoxy)phenyl) pyridazine-4-carboxamide], the inhibition at 10 µM [2] was 60%.
